Data as given in patent US12083082B2, “Methods for treating neurodegenerative disorders” (Alzheon, Inc., priority 2018, dated 2024).
Several values for one entry are separate records, joined by “and”; a condition that tells them apart may be missing. Identical values can stand only once. Like-named read-outs stand apart in the source and are kept apart here.

Legend:
CYP = assay: Metabolism and CYP interactions of 3-SPA
Description: ALZ-801 is a valine conjugate of tramiprosate that has been optimized for improved pharmacokinetic properties and gastrointestinal tolerability. Chronic toxicology studies required for the advancement of ALZ-801 to Phase 3 have been completed, including the nonclinical safety characterization of ALZ-801, and the safety bridge to the extensive nonclinical toxicology and safety data for tramiprosate. […] See Hey et al., Clinical Pharmacokinetics and Safety of ALZ-801, a Novel Prodrug of Tramiprosate in Development for the Treatment of Alzheimer's Disease. Clin Pharmacokinetics 2018; 315-333 and Kocis et al., Elucidating the Abeta42 Anti-Aggregation Mechanism of Action of Tramiprosate in Alzheimer's Disease: Integrating Molecular Analytical Methods. Pharmacokinetic and Clinical Data. CNS Drugs 2017; 31:495-509. […] Both ALZ-801 and tramiprosate have consistent elimination half-life in plasma across species following repeated oral doses of ALZ-801, indicating no potential for accumulation after chronic dosing. Following conversion of ALZ-801 to tramiprosate, tramiprosate is consistently metabolized in vivo into a single major metabolite, 3-sulfopropanoic acid (3-SPA), in humans, mice, rats, dogs and minipigs.

[1] = CSF concentrations of 3-SPA at Week 78 in North American Phase 3 tramiprosate trial (LC-MS/MS); format: in vivo, human; conditions: 150 mg BID tramiprosate; for concentration at 78 week: human, CSF, oral, 150 mg BID
Method: The samples were withdrawn from the freezer and shipped on dry ice to Nextcea Inc. (Woburn, MA) and stored in a freezer set to maintain−80° C. after receipt. The CSF collection and storage were carried out after subjects signed an informed consent in accordance with the ethical guidelines in the Czech Republic and good clinical practice, and according to the widely recognized consensus protocol for the standardization of CSF collection and biobanking (Viola et al., Amyloid β oligomers in Alzheimer's disease pathogenesis, treatment, and diagnosis. Acta Neuropathol 2015; 129:183-206; and Vanderstichele et al. Standardization of preanalytical aspects of cerebrospinal fluid biomarker testing for Alzheimer's disease diagnosis: A consensus paper from the Alzheimer's Biomarkers Standardization Initiative. Alzheimers Dement 2012; 8(1):65-73). Commercial ELISA kits (Innogenetics NV, Ghent, Belgium) were used for dementia biomarker analyses (Aβ1-42, tau protein, and phospho-tau), and cut off values derived from a validation study were used. CSF concentrations of 3-SPA were also quantified in 12 patients receiving the 150 mg BID dose of tramiprosate at Week 78 of the Phase 3 North American AD trial.
The 3-SPA reference material and human CSF samples were mixed with N-ethyl-N′-(3-dimethylaminopropyl) carbodiimide (EDC) and 2,2,2-trifluro ethylamine (TFEA). The samples were vortexed and reacted at room temperature for 30 minutes. The reactions were centrifuged at 4500 rpm for 5 minutes. The supernatant was transferred to a new plate for analysis. 3-SPA was identified and characterized using LC-MS and LC-MS/MS. Injections were made onto a Thermo Scientific AQUASIL 5 μm, 50×2.1 mm column using a Shimadzu autosampler and UPLC pump. Mobile phase A was 0.1% trifluoroacetic acid in water (v/v). Mobile phase B was 0.1% formic acid in 90/10 acetonitrile/water (v/v). The flow rate was 0.35 mL/min. The total running time per sample was 4 min. An API 6500 triple quadrupole mass spectrometer was used for detection. Data were acquired in negative LC-MS and LC-MS/MS modes. Representative chromatograms of 3-SPA in crude native material and human CSF derivatized with EDC and TFEA are shown in FIG. 7, FIG. 8 Panel A, and FIG. 8 Panel B. LC-MS and LC-MS/MS data were acquired using Analyst software (AB Sciex, Foster City, CA). LOQ for the LC-MS/MS method was 0.1 ng/ml with a dynamic range of 0.1 to 1000 ng/ml (r=0.99688 and % CV 5.8%±2.0; data on file). 3-SPA was identified in human CSF by matching the chromatographic retention time and by co-elution of the LC-MS/MS transition ions to the authentic 3-SPA reference standard (synthesized by Paraza Pharma, Montreal, Canada).
The levels of 3-SPA of in patients with a variety of cognition impairing diseases, including AD, ranged from 4.15 to 27.7 nM (0.64-4.27 ng/ml) (Table 1). When related to the CSF concentrations of Aβ42 monomers in AD patients (0.04 nM to 0.1 nM) (Bakan et al., ProDy: protein dynamics inferred from theory and experiments. Bioinformatics 2011; 27:1575-7; Shaw et al. Cerebrospinal fluid biomarker signature in Alzheimer's disease neuroimaging initiative subjects. Ann Neurol 2009; 65:403-13; Pannee et al. Reference measurement procedure for CSF Abeta1-42 and the CSF Abeta1-42/Abeta1-40 ratio—a crossvalidation study against Amyloid PET. J. Neurochem 2016; and Lambert et al. Diffusible, nonfibrillar ligands derived from A 1-42 are potent central nervous system neurotoxins. PNAS. 1998; 95:6448-53), there is an approximately 40-700 fold excess of 3-SPA over soluble Aβ42 monomers, which falls within the range where partial Aβ anti-oligomer aggregation activity may occur in some patients (Table 3). Furthermore, retrospective analyses of the CSF of a subset of patients from the tramiprosate Phase 3 trial were also evaluated for presence of 3-SPA, the primary metabolite of tramiprosate. […]

[2] = Brain penetration of oral 3-SPA in male SD rats (brain, CSF, plasma); format: in vivo, Sprague-Dawley rats; conditions: oral 30 mg/kg
Method: A separate group of animals was dosed orally at 30 mg/kg and terminal brain, CSF and plasma samples were collected at 1, 2, 6, and 24 hr (3 animals for each time point) for bioanalyses of 3-SPA in brain and CSF, and to estimate brain penetration relative to plasma concentrations. The in-life study was performed at Agilux Laboratories (Worcester, MA) following quality standards in line with Good Laboratory Practice. Bioanalyses of rat plasma, CSF and brain was preformed using LC-MS/MS at Nextcea. Prior to processing rat brains for bioanalysis, the brains were perfused to remove pooled blood. Pharmacokinetic data analyses were conducted using Winnonlin Professional v5.0.1 (Pharsight, Mountain View, CA).
The plasma concentration of a single dose of 3-SPA, dissolved in saline as a clear solution, administered orally and intravenously to rats at a dose level of 30 mg/kg and 10 mg/kg, respectively, are shown in FIG. 9. Brain, CSF and corresponding plasma levels after a single oral dose of dose of 30 mg/kg of 3-SPA at 1, 2, 6, and 24 hr are shown in FIG. 10. Mean PK curves were used for calculation of pharmacokinetic parameters.

Q: Which “Further metabolism or CYP interactions (in words)” value (CYP) does the source give for `O=C(O)CCS(=O)(=O)O` [3-SPA, 3-sulfopropanoic acid] here?
A: Its value is “No further metabolism or CYP interactions have been observed”.

Q: What about the “CSF concentration of 3-SPA, Median” value ([1]; Week 78) of the same molecule?
A: Its value is 19.3 ng/ml and 127.5 nM.

Q: What about the “CSF concentration of 3-SPA, Minimum-maximum” value ([1]; Week 78) of the same molecule?
A: The value was 17.3-35.7 ng/ml and 114.3-235.8 nM.

Q: And the “increase of mean CSF 3-SPA over levels observed in drug naïve patients” value ([1]; Week 78)?
A: The value was 12.6 fold.

Q: And the “CSF concentration of 3-SPA, Mean ± SD” value ([1]; Week 78, n=6)?
A: The value was 22.3 ± 7.9 ng/ml and 147 ± 51.3 nM.

Q: And the concentration at 78 week ([1]; Week 78, n=6, read-out: CSF concentration of 3-SPA, Mean ± SD)?
A: Its concentration at 78 week is 147 nM.

Q: And the concentration at 78 week ([1]; Week 78, read-out: CSF concentration of 3-SPA, Minimum-maximum)?
A: The concentration at 78 week was 114 to 236 nM.

Q: And the “AUC 0-inf_obs” value ([2]; Brain)?
A: Its value is 33224.4 ng·h/mL.

Q: And the “AUC 0-t” value ([2]; Brain)?
A: Its value is 7586.5 ng·h/mL.

Q: What about the Cmax ([2]; Brain) of the same molecule?
A: Its Cmax is 649.8 ng/mL.

Q: What about the t½ ([2]; Brain) of the same molecule?
A: The t½ was 64.07 h.

Q: And the “AUC 0-inf_obs” value ([2]; CSF)?
A: Its value is 726.2 ng·h/mL.

Q: What about the “AUC 0-t” value ([2]; CSF) of the same molecule?
A: The value was 463.6 ng·h/mL.

Q: And the Cmax ([2]; CSF)?
A: Its Cmax is 159.2 ng/mL.

Q: What about the t½ ([2]; CSF) of the same molecule?
A: The t½ was 3.56 h.

Q: And the “AUC 0-inf_obs” value ([2]; Plasma)?
A: The value was 30099.2 ng·h/mL.

Q: What about the “AUC 0-t” value ([2]; Plasma) of the same molecule?
A: Its value is 30001.7 ng·h/mL.

Q: What about the Cmax ([2]; Plasma) of the same molecule?
A: Its Cmax is 5714.6 ng/mL.

Q: What about the t½ ([2]; Plasma) of the same molecule?
A: Its t½ is 3.03 h.

Q: And the “CSF/brain AUC %” value [2]?
A: The value was 6.1%.

Q: What about the “Brain/Plasma (AUC %), brain penetration” value ([2]; 30 mg/kg) of the same molecule?
A: Its value is 25% and 25.3%.
